# Measurements as given in patent US5273991A, “Imidazole-containing compositions and methods of use thereof analogs of distamycin” (Research Corporation Technologies, Inc., priority 1992, dated 1993).
# Tests used:
# calf thymus DNA = assay: ethidium displacement assay, calf thymus DNA; type: binding; conditions: ± 0.02 × 10^5 M^-1, pH 7.4
# From the text: (§1) The ethidium displacement assay is based on the fact that ethidium binding to DNA causes a large (approximately 25 fold) florescence enhancement as a result of the hydrophobic environment surrounding the ethidium molecule. Displacement of ethidium results in decreased fluorescence, and thus binding constants of drugs to DNA can be estimated and compared by measuring the loss of fluorescence as a function of added drug. The drug concentration which produces 50% inhibition of florescence is approximately inversely proportional to the apparent binding constant.
# (§2) The relative DNA binding constants (Kapp) of distamycin and Compounds 6-10 to calf thymus DNA, T4 coliphage DNA, poly(dAdT) and poly(dGdC) were determined using the ethidium displacement assay (Morgan et al., 1979). The Kapp of ethidium bromide (Debart et al., 1989) is included for comparison. 25 μL of a 2A260 DNA solution was added to 2 mL of ethidium bromide buffer (250 μL of 1.3 mM ethidium bromidestock, 314.9 mg Tris-HCl, 60.8 mg Tris base and 930/mg of Na2 EDTA.2H2 O in 250 ml H2 O) pH 7.4 and the maximum fluorescence was measured (excitation wavelength=546 nm, emission wavelength=600 nm) at ambient temperature.
# (§3) DNA solutions of 2A260 were prepared as follows: T4 coliphage DNA: 10 units of DNA were dissolved in 1 mL of 10 mM sodium phosphate (pH 7.1) and 0.25 mM EDTA buffer to give a 10A260 solution. 0.3 mL of the stock solution were diluted to 1.5 mL with 10 mM sodium phosphate (pH 7.1) and 0.25 mM EDTA buffer to give a 2A260 solution. Calf thymus DNA: 100 units of DNA were dissolved in 5 mL of 10 mM sodium phosphate (pH 7.1) and 0.25 mM EDTA buffer to give a 20A260 solution. 1.5 mL of the stock solution were diluted to 15 mL with 10 mM sodium phosphate (pH 7.1) and 0.25 mM EDTA buffer to give a 2A260 solution. Poly(dA-dT) and Poly(dG-dC) DNA: 100 units of DNA were dissolved in 10 mL of 10 mM sodium phosphate pH 7.1) and 0.25 mM EDTA buffer to give a 10A260 solution. 3 mL of the stock solution were diluted to 15 mL with 10 mM sodium phosphate (pH 7.1) and 0.25 mM EDTA buffer to give a 2A260 solution.
# (§4) Aliquots of 10 mM stock drug solution (1 mg of drug to be tested was dissolved with 1 mole equivalent of 0.1M HCl, and then diluted with appropriate volume of distilled water to make a 10 mM solution) were then added to the fluorescing solution and the florescence measured after each addition until a 50% reduction of fluorescence occurred. If the 10 mM stock solution lowered the % fluorescence too quickly, the stock solution was further diluted to 1 mM prior to titration. The apparent binding constant was then calculated from this equation: KEtBr [EtBr]=Kapp [drug], where [drug]=the concentration of drug at a 50% reduction of fluorescence and KEtBr [1×10^7 M^-1 for calf thymus and coliphage T4 DNA^18, 9.5×10^6 M^-1 for poly(dA.dT)^30, and 9.9×10^6 M^-1 for poly(dG.dC)^30 ] and [EtBr] were known. The concentration of ethidium bromide was 1.3 μM. The Kapp values are shown in Table I. In a separate experiment, the Kapp of Compound 5 for calf thymus DNA and poly[dGdC] were determined to be 0.3×10^5 M^-1 and 2.6×10^5 M^-1, respectively. The error in these measurements is ±[…].
# poly(dAdT) = assay: ethidium displacement assay, poly(dAdT); type: binding; conditions: ± 0.02 × 10^5 M^-1, pH 7.4
# From the text: as §1, §2, §3, §4
# CAKI-1 = assay: NCI cytotoxicity screen (SRB); type: cell-based, human
# Experimental: (§5) Compounds 6, 7, 9 and 10 were tested for cytotoxic properties by the National Cancer Institute, Bethesda, Md. The anticancer drug screen utilized a panel of 60 human tumor cell lines organized into subpanels representing leukemia, melanoma, and cancers of the lung, colon, kidney, ovary and central nervous system and is described by Monks et al. (1991) Journal of the National Cancer Institute 83, 757, which is incorporated herein by reference.
# (§6) Cell lines were inoculated onto microtiter plates and preincubated for 24-28 hours. 100 μL aliquots of each compound were added to the appropriate microtiter plate wells in each of five 10-fold dilutions starting from a maximum concentration of 10^-4 M in water or DMSO. Cultures were then incubated for an additional 48 hours. Cells were then fixed in situ, followed by staining with sulforhodamine B (SRB), which binds to basic amino acids of cellular macromolecules. The solubilized stain was measured spectrophotometrically to determine relative cell growth or viability in treated and untreated cells. The monoimidazole analogs of Compounds 6, 7, 9 and 10 and the formamido analog corresponding to Compounds 7 and 10 are devoid of activity against the panel of cancer cell lines in Table III.
# LOX 1MV1 = assay: NCI cytotoxicity screen (SRB); type: cell-based, human
# Experimental: as §5, §6
# LXFL529 = assay: NCI cytotoxicity screen (SRB); type: cell-based, human
# Experimental: as §5, §6
# M14 = assay: NCI cytotoxicity screen (SRB); type: cell-based, human
# Experimental: as §5, §6
# OVCAR-5 = assay: NCI cytotoxicity screen (SRB); type: cell-based, human
# Experimental: as §5, §6
# RXR-631 = assay: NCI cytotoxicity screen (SRB); type: cell-based, human
# Experimental: as §5, §6
# SK-MEL-28 = assay: NCI cytotoxicity screen (SRB); type: cell-based, human
# Experimental: as §5, §6
# SK-MEL-5 = assay: NCI cytotoxicity screen (SRB); type: cell-based, human
# Experimental: as §5, §6
# SK-OV-3 = assay: NCI cytotoxicity screen (SRB); type: cell-based, human
# Experimental: as §5, §6
# SN12C = assay: NCI cytotoxicity screen (SRB); type: cell-based, human
# Experimental: as §5, §6
# SR = assay: NCI cytotoxicity screen (SRB); type: cell-based, human
# Experimental: as §5, §6
# TK-10 = assay: NCI cytotoxicity screen (SRB); type: cell-based, human
# Experimental: as §5, §6
# LOX IMVI = assay: NCI cytotoxicity screen (SRB); type: cell-based, human; conditions: 48 h; Melanoma LOX IMVI
# Experimental: as §5, §6
# [1] = SK-MEL-28, subsequent test date
smiles,measurement,setting,value
"CN(C)CCNC(=O)c1nc(NC(=O)c2nc(NC(=O)c3nc(NC(=O)c4ccc(N(CCCl)CCCl)cc4)cn3C)cn2C)cn1C [Compound 7, N-(N',N'-dimethylaminoethyl)-1-methyl-4-{1-methyl-4-[4-(4,4-bis-(2-chloroethyl)aminobenzamido)-1-methylimidazole-2-carboxamido]imidazole-2-carboxamido}imidazole-2-carboxamide]",Association constant Kapp,calf thymus DNA,591000 M⁻¹
same,Association constant Kapp,poly(dAdT),950000 M⁻¹
same,IC50,"CAKI-1; 48 h, Renal Cancer CAKI-1",> 100 µM
same,IC50,"LOX 1MV1; 48 h, Melanoma LOX 1MV1",0.89 µM
same,IC50,"LOX 1MV1; LOX 1MV1, subsequent test date",4.51 µM
same,IC50,"LXFL529; LXFL529, subsequent test date",0.54 µM
same,IC50,"M14; M14, subsequent test date",0.59 µM
same,IC50,"OVCAR-5; 48 h, Ovarian Cancer OVCAR-5",6.13 µM
same,IC50,"OVCAR-5; OVCAR-5, subsequent test date",5.24 µM
same,IC50,"RXR-631; 48 h, Renal Cancer RXR-631",5.97 µM
same,IC50,"SK-MEL-28; 48 h, Melanoma SK-MEL-28",0.91 µM
same,IC50,SK-MEL-28; [1],0.64 µM
same,IC50,"SK-MEL-5; 48 h, Melanoma SK-MEL-5",0.63 µM
same,IC50,"SK-OV-3; 48 h, Ovarian Cancer SK-OV-3",0.83 µM
same,IC50,"SK-OV-3; SK-OV-3, subsequent test date",0.48 µM
same,IC50,"SN12C; SN12C, subsequent test date",0.61 µM
same,IC50,"SR; 48 h, Leukemia SR",0.91 µM
same,IC50,"TK-10; 48 h, Renal Cancer TK-10",4.2 µM
same,IC50,"TK-10; TK-10, subsequent test date",3.51 µM
"CN(C)CCNC(=O)c1nc(NC(=O)c2nc(NC(=O)c3nc(NC(=O)CCCc4ccc(N(CCCl)CCCl)cc4)cn3C)cn2C)cn1C [Compound 10, N-(N',N'-dimethylaminoethyl)-1-methyl-4-{1-methyl-4-[4-(4,4-bis(2-chloroethyl)aminophenyl-1-butanamido)-1-methylimidazole-2-carboxamido]imidazole-2-carboxamido}imidazole-2-carboxamide]",Association constant Kapp,calf thymus DNA,22000 M⁻¹
same,Association constant Kapp,poly(dAdT),13000 M⁻¹
same,IC50,LOX IMVI,6.44 µM
"CN(C)CCNC(=O)c1nc(NC(=O)c2nc(NC(=O)CCCc3ccc(N(CCCl)CCCl)cc3)cn2C)cn1C [Compound 9, N-(N',N'-dimethylaminoethyl)-1-methyl-4-{4-[4,4-bis(2-chloroethyl)aminophenyl-1-butanamido]-1-methylimidazole-2-carboxamido}imidazole-2-carboxamide]",Association constant Kapp,calf thymus DNA,64000 M⁻¹
same,Association constant Kapp,poly(dAdT),54000 M⁻¹
same,IC50,LOX IMVI,49.5 µM
"CN(C)CCNC(=O)c1nc(NC(=O)c2nc(NC(=O)c3ccc(N(CCCl)CCCl)cc3)cn2C)cn1C [Compound 6, N-(N',N'-dimethylaminoethyl)-1-methyl-4-{4-[4,4-bis(2-chloroethyl)aminobenzamido]-1-methylimidazole-2-carboxamido}imidazole-2-carboxamide]",Association constant Kapp,calf thymus DNA,456000 M⁻¹
same,Association constant Kapp,poly(dAdT),475000 M⁻¹
same,IC50,"CAKI-1; 48 h, Renal Cancer CAKI-1",51.9 µM
same,IC50,"CAKI-1; CAKI-1, subsequent test date",59.7 µM
same,IC50,"LOX 1MV1; LOX 1MV1, subsequent test date",7.47 µM
same,IC50,"LXFL529; 48 h, Non-Small Cell Lung Cancer LXFL529",13.2 µM
same,IC50,"LXFL529; LXFL529, subsequent test date",34.8 µM
same,IC50,"M14; 48 h, Melanoma M14",5.92 µM
same,IC50,"M14; M14, subsequent test date",5.81 µM
same,IC50,"OVCAR-5; 48 h, Ovarian Cancer OVCAR-5",45.7 µM
same,IC50,"OVCAR-5; OVCAR-5, subsequent test date",51.3 µM
same,IC50,"RXR-631; 48 h, Renal Cancer RXR-631",6.61 µM
same,IC50,"RXR-631; RXR-631, subsequent test date",9.95 µM
same,IC50,"SK-MEL-28; 48 h, Melanoma SK-MEL-28",5.69 µM
same,IC50,SK-MEL-28; [1],5.78 µM
same,IC50,"SK-MEL-5; SK-MEL-5, subsequent test date",52 µM
same,IC50,"SK-OV-3; 48 h, Ovarian Cancer SK-OV-3",52.9 µM
same,IC50,"SK-OV-3; SK-OV-3, subsequent test date",6.18 µM
same,IC50,"SN12C; 48 h, Renal Cancer SN12C",15.6 µM
same,IC50,"SN12C; SN12C, subsequent test date",39.9 µM
same,IC50,"SR; 48 h, Leukemia SR",10.4 µM
same,IC50,"SR; SR, subsequent test date",> 100 µM
same,IC50,"TK-10; 48 h, Renal Cancer TK-10",59.9 µM
same,IC50,"TK-10; TK-10, subsequent test date",56.2 µM
"CN(C)CCNC(=O)c1nc(NC(=O)c2nc(NC(=O)c3nc(NCc4ccc(N(CCCl)CCCl)cc4)cn3C)cn2C)cn1C [Compound 8, N-(N',N'-dimethylaminoethyl)-1-methyl-4-{1-methyl-4-[4-(4,4-bis-(2-chloroethyl)aminobenzylamino)-1-methylimidazole-2-carboxamido]imidazole-2-carboxamido}imidazole-2-carboxamide]",Association constant Kapp,calf thymus DNA,473000 M⁻¹
same,Association constant Kapp,poly(dAdT),457000 M⁻¹
